Among the data in PubChem BioAssay AID1208 (EPA DSSTox, 2008) are Potency and outcome values, retold here.

The data set has as its system rat chronic carcinogenicity bioassay, TD50. Description: DSSTox (CPDBAS) Carcinogenic Potency Database Summary Rat Bioassay Results. As to conditions: for Potency: stronger effect = lower value. An excerpt:
The Carcinogenic Potency Database (CPDB) is a unique and widely used international resource of the results of over 6500 chronic, long-term animal cancer tests on over 1500 chemical substances. The CPDB provides easy access to the bioassay literature, with qualitative and quantitative analyses of both positive and negative experiments that have been published over the past 50 years in the general literature and by the National Cancer Institute/National Toxicology Program. The CPDB standardizes the diverse literature of cancer bioassays that vary widely in protocol, histopathological examination and nomenclature, and in the published author's choices of what information to provide in their papers. Results are reported in the CPDB for tests in rats, mice, hamsters, dogs, and nonhuman primates, and are based on the most positive result among all experiments for each sex-species. The DSSTox CPDBAS (all species) file incorporates data from the CPDB Summary Tables for the full list of over 1500 chemical substances tested in at least one species. Summary bioassay results for Rat (TD50, tumor sites, male, female, both sexes) are provided in the CPDB Summary Tables and the DSSTox CPDBAS file for over 1200 chemical substances.
TD50 is a standardized quantitative measure of carcinogenic potency (analogous to an LD50) and is reported in the CPDB Summary Table for each species. Activity Score for actives is computed by mapping of LOG10 (1/TD50_Rat_mmol) activity values spanning range [MIN, MAX] onto Integer 1-100 Activity Score range, where 100 is highest potency and 1 is lowest: Activity Score = 100 * INTEGER[(log10(1/Activity) - MIN)/(MAX - MIN)]. If activity is reported but no TD50_Rat_mmol value is computed, such as for a mixture, the Activity Score is assigned the activity value "50". […] Target sites are reported for each sex-species group with a positive result in the CPDB on the basis of a positive author's opinion for the particular site, using all results from both the general literature and NCI/NTP bioassays. If a chemical has two or more target sites listed, the results may be from different experiments, and a single site may be a target organ in more than one experiment, as well. Blank entry in TargetSites field indicates no results reported.

The mark [1] stands for this setting: TD50_Rat_Note: TD50 is harmonic mean of more than one positive test, TargetSites_Rat_Female: liver.
Where [2] appears, read: TD50_Rat_Note: no positive results, TargetSites_Rat_Female: no positive results.
Setting [3] is: TD50_Rat_Note: no positive results.
[4] abbreviates: TD50_Rat_Note: no positive results, TargetSites_Rat_BothSexes: no positive results.
The mark [5] stands for this setting: TargetSites_Rat_Female: no positive results.
[6] abbreviates: TargetSites_Rat_Female: mammary gland.

Each structure is given as a SMILES string. The source made the active and inactive calls.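 The calls were made as follows: active = at least one rat sex group has a carcinogenic potency value and tumor site recorded; inconclusive = only rat studies were judged inadequate by the national testing program; inactive = no potency or tumor site, with negative rat experiments.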

On to `CC1(C)O[C@@H]2C[C@H]3[C@@H]4CCC5=CC(=O)C=C[C@]5(C)[C@@]4(F)[C@@H](O)C[C@]3(C)[C@]2(C(=O)CO)O1`, for which the Potency was 0.053 mg/kg/day.

Take `CC(N)=O`: the Potency under setting [1] was 180 mg/kg/day.

For `O=NN1CCNCC1`, under “TD50_Rat_Note: TD50 is harmonic mean of more than one positive test, no positive results are statistically significant, TargetSites_Rat_Female: all tumor bearing animals”, the Potency is 8.78 mg/kg/day.

With `NCCCC(N)(C(=O)O)C(F)F` (stereo not drawn), under setting [2], the outcome is “inactive; no positive results”.

In the case of `O=C(O)O`, the Potency (TD50_Rat_Note: TD50 is harmonic mean of more than one positive test, TargetSites_Rat_Female: urinary bladder) was 13000 mg/kg/day. In addition, the outcome under setting [3] was “inactive; no positive results”.

For `N[C@@H](CS)C(=O)O`, under setting [2], the outcome is “inactive; no positive results”.

Take `c1ccc(C2CO2)cc1` (stereo not drawn): the Potency (TD50_Rat_Note: TD50 is harmonic mean of more than one positive test, TargetSites_Rat_Female: stomach) is 55.4 mg/kg/day.

Consider `COc1ccccc1[N+](=O)[O-]`, for which, under “TD50_Rat_Note: TD50 is harmonic mean of more than one positive test, greater than ten-fold variation among TD50 values for positive res, TargetSites_Rat_Female: hematopoietic system, kidney, large intestine, urinary bladder”, the Potency is 15.6 mg/kg/day.

As to `COc1cc(-c2ccc(N=C=O)c(OC)c2)ccc1N=C=O`, the Potency (TD50_Rat_Note: TD50 is harmonic mean of more than one positive test, TargetSites_Rat_Female: hematopoietic system, uterus) is 1630 mg/kg/day.

For `CCCN=[N+]([O-])CCC`, the Potency (TD50_Rat_Note: harmonic mean of TD50 includes a value for upper 99% confidence limit from study with 100% tumor incidence but no lifeta) was 0.000241 mg/kg/day.

For `CC(=O)C(N=Nc1ccc(Cl)cc1Cl)C(=O)Nc1ccc(-c2ccc(NC(=O)C(N=Nc3ccc(Cl)cc3Cl)C(C)=O)c(C)c2)cc1C` (stereo not drawn), the result under setting [4] was inactive.

Consider `Cc1cc(O)c2c(c1)C(=O)c1cc(O)cc(O)c1C2=O`, for which, under setting [2], the outcome is “inactive; no positive results”.

`Nc1cc([N+](=O)[O-])ccc1C(=O)O`: the outcome under setting [2] was “inactive; no positive results”.

For the molecule `CC(C)(OCc1ccc(-c2ccc(Cl)cc2)cc1)C(=O)O`, under setting [2], the outcome is “inactive; no positive results”.

In the case of `Cc1ccc(N)cc1Cl`, the outcome under setting [2] is “inactive; no positive results”.

`NNC(=O)c1ccncc1`: under “TD50_Rat_Note: TD50 is harmonic mean of more than one positive test, TargetSites_Rat_Female: mammary gland”, the Potency is 150 mg/kg/day.

For `ClC(Cl)Br`, the Potency (TD50_Rat_Note: TD50 is harmonic mean of more than one positive test, greater than ten-fold variation among TD50 values for positive res, TargetSites_Rat_Female: kidney, large intestine, liver) is 72.5 mg/kg/day.

Turning to `O=S(=O)(O)c1ccc(N=Nc2cc(S(=O)(=O)O)c3ccccc3c2O)c2ccccc12`, the outcome under setting [2] was “inactive; no positive results”.

For `Nc1ccc2cc3ccc(N)cc3nc2c1`, the outcome (TD50_Rat_Note: only experiment is NCI/NTP bioassay inadequate, TargetSites_Rat_Female: NTP bioassay inadequate) is “ntp bioassay inadequate”.

As to `CCCCCN(N=O)C(N)=O`, for the setting “TD50_Rat_Note: TD50 is harmonic mean of more than one positive test, TargetSites_Rat_Female: hematopoietic system, lung, mammary gland, stomach, uterus”, the Potency is 0.555 mg/kg/day.

With `F`, the outcome under setting [2] was “inactive; no positive results”.

For `CC(O)c1ccccc1` (stereo not drawn), under setting [5], the Potency is 458 mg/kg/day.

With `C[C@H](CCC(=O)O)[C@H]1CC[C@H]2[C@@H]3CC[C@@H]4C[C@H](O)CC[C@]4(C)[C@H]3CC[C@]12C`, the outcome under setting [2] was “inactive; no positive results”.

On to `Cc1cccc(Nc2cc(Cl)nc(SCC(=O)NCCO)n2)c1C`, for which the Potency was 6.49 mg/kg/day.

Consider `CC(=O)Oc1ccccc1C(=O)O`, for which the outcome under setting [4] was “inactive; no positive results”.

Take `CC(C(=O)O)c1cccc(C(=O)c2ccccc2)c1` (stereo not drawn): the outcome under setting [3] was “inactive; no positive results”.

Consider `C=C(C)C(=O)OC`, for which the outcome under setting [2] was “inactive; no positive results”.

Regarding `O=NN1CSCSC1`, under setting [2], the outcome was inactive.

Turning to `COP(=O)(OC)OC=C(Cl)Cl`, under setting [5], the Potency is 4.16 mg/kg/day.

On to `O=[N+]([O-])OCC(CO[N+](=O)[O-])O[N+](=O)[O-]`, for which the Potency under setting [1] was 183 mg/kg/day.

On to `COc1c(Cl)c(Cl)c(Cl)c(Cl)c1Cl`, for which, under setting [5], the Potency is 24.8 mg/kg/day.

In the case of `CCN(CC(F)(F)F)N=O`, the Potency was 2.52 mg/kg/day.

Take `O=[N+]([O-])c1ccccc1`: the Potency (TD50_Rat_Note: TD50 is harmonic mean of more than one positive test, TargetSites_Rat_Female: liver, uterus) is 25.5 mg/kg/day.

Consider `Nc1ccc(NCCO)c([N+](=O)[O-])c1`, for which the outcome under setting [2] is “inactive; no positive results”.

For `O=C1CCc2ccccc2O1`, the Potency under setting [5] is 2970 mg/kg/day.

For the molecule `CS(=O)(=O)c1ccc([C@@H](O)[C@@H](CO)NC(=O)C(Cl)Cl)cc1`, the outcome under setting [2] is “inactive; no positive results”.

Turning to `COC1[C@@H](O[C@@H]2O[C@H](C)[C@@H](O[C@H]3C[C@@](C)(O)[C@H](OC(=O)CC(C)C)[C@H](C)O3)[C@H](N(C)C)[C@H]2O)[C@@H](CC=O)C[C@@H](C)[C@@H](O)/C=C/C=C/C[C@@H](C)OC(=O)C[C@H]1OC(C)=O` (stereo partly drawn), the outcome under setting [2] was “inactive; no positive results”.

With `Nc1ccc(Cl)cc1N`, the Potency (TD50_Rat_Note: TD50 is harmonic mean of more than one positive test, TargetSites_Rat_Female: stomach, urinary bladder) was 214 mg/kg/day.

Consider `NCCS(=O)(=O)O`, for which, under setting [2], the outcome was “inactive; no positive results”.

`CN(C#N)N=O`: the Potency (TargetSites_Rat_Female: stomach) was 0.48 mg/kg/day.

For `CC(C)CCC[C@@H](C)[C@H]1CC[C@H]2[C@@H]3CC=C4C[C@@H](OC(=O)Cc5ccc(N(CCCl)CCCl)cc5)CC[C@]4(C)[C@H]3CC[C@]12C`, the Potency under setting [6] is 0.523 mg/kg/day.

For the molecule `ClCOCCl`, the Potency is 0.00357 mg/kg/day.

As for `c1ccc2c(c1)[nH]c1cnccc12`, the outcome under setting [3] was “inactive; no positive results”.

For the molecule `CC/C=C(/CC)[N+](=O)[O-]`, the Potency (TargetSites_Rat_BothSexes: lung) is 8.66 mg/kg/day.

Regarding `CCCCC(C)(O)C/C=C/[C@H]1[C@H](O)CC(=O)[C@@H]1CCCCCCC(=O)OC` (stereo partly drawn), under setting [2], the outcome was “inactive; no positive results”.

For `Clc1ccc(C(c2ccc(Cl)cc2)C(Cl)(Cl)Cl)cc1`, the Potency under setting [1] is 84.7 mg/kg/day.

As for `CC(=O)Nc1ccc(-c2ccccc2)cc1`, the Potency under setting [6] was 1.18 mg/kg/day.

For the molecule `COc1ccc2c(c1)c(CC(=O)O)c(C)n2C(=O)c1ccc(Cl)cc1`, the Potency under setting [6] is 1.15 mg/kg/day.

As for `Nc1nc(N)nc(-c2ccc([N+](=O)[O-])o2)n1`, the Potency under setting [6] is 1.71 mg/kg/day.

Regarding `Oc1ccccc1-c1ccccc1`, the Potency was 232 mg/kg/day. Also, the Potency (TD50_Rat_Note: TD50 is harmonic mean of more than one positive test, greater than ten-fold variation among TD50 values for positive res, TargetSites_Rat_Female: urinary bladder) was 672 mg/kg/day.

In the case of `CS(=O)(=O)OCCCCOS(C)(=O)=O`, the outcome under setting [3] was “inactive; no positive results”.

Regarding `NC(=O)N(CCO)N=O`, for the setting “TD50_Rat_Note: TD50 is harmonic mean of more than one positive test, greater than ten-fold variation among TD50 values for positive res, TargetSites_Rat_Female: hematopoietic system, mammary gland”, the Potency is 0.244 mg/kg/day.

For `CN[C@H]1CCc2cc(OC)c(OC)c(OC)c2-c2ccc(OC)c(=O)cc21`, under setting [3], the outcome was “inactive; no positive results”.

As for `[O]=[Bi]`, under setting [4], the outcome was inactive.

As for `CC(O)CN(C)N=O` (stereo not drawn), the Potency (TD50_Rat_Note: TD50 is harmonic mean of more than one positive test, TargetSites_Rat_Female: esophagus, nasal cavity) was 0.0463 mg/kg/day.

On to `CN1[C@@H]2CC[C@H]1CC(OC(=O)C(CO)c1ccccc1)C2` (stereo partly drawn), for which the outcome under setting [2] was “inactive; no positive results”.

As to `Cc1c(N)cccc1N`, under setting [2], the outcome is “inactive; no positive results”.

Take `O=S(=O)(O)c1cc(S(=O)(=O)O)c2c(N=Nc3ccc(S(=O)(=O)O)c4ccccc34)c(O)ccc2c1`: the Potency (TargetSites_Rat_BothSexes: all tumor bearing animals) is 24500 mg/kg/day.

Consider `ClC1=C(Cl)[C@@]2(Cl)[C@@H]3[C@@H](Cl)[C@H](Cl)C[C@@H]3C1(Cl)C2(Cl)Cl`, for which, under setting [2], the outcome is “inactive; no positive results”.

Regarding `CCOC(=O)/C=C\C(=O)OCC`, under setting [3], the outcome was “inactive; no positive results”.

Regarding `CN(C)[C@@H]1C(=O)C(C(N)=O)=C(O)[C@@]2(O)C(=O)C3=C(O)c4c(O)cccc4[C@@](C)(O)[C@H]3[C@H](O)[C@@H]12`, the outcome under setting [2] was “inactive; no positive results”.

Turning to `CC(C)Cc1ccc(C(C)C(=O)O)cc1` (stereo not drawn), under setting [3], the outcome is “inactive; no positive results”.

As to `ClC1=C(Cl)[C@]2(Cl)[C@@H]3[C@H]4C[C@H]([C@@H]5O[C@H]45)[C@@H]3[C@@]1(Cl)C2(Cl)Cl`, under setting [2], the outcome is “inactive; no positive results”.

As to `ClC1C(Cl)C(Cl)C(Cl)C(Cl)C1Cl` (stereo not drawn), the Potency is 11.2 mg/kg/day. Further, the outcome under setting [2] was “inactive; no positive results”.

With `CN[C@@H](C)[C@H](O)c1ccccc1`, the outcome under setting [2] is “inactive; no positive results”.
